# Data published in US9980945B2, “Benzoisoxazole-substituted compounds as MGLUR4 allosteric potentiators, compositions, and methods of treating neurological dysfunction” (Vanderbilt University, priority 2015, dated 2018).
# pEC50: −log10 of the molar value.
# Biological target: mGluR4 (UniProt Q14833)
# Test: mGluR4 potentiation assay (EC50 for potentiation at EC20 agonist; fluorometric plate reader, Ca2+ or thallium dye)
# Format: cell-based
# Settings: potentiation of mGluR4; species of receptor not given
# Method: The disclosed compounds and compositions can be evaluated for their ability to act as a potentiator of metabotropic glutamate receptor activity, in particular mGluR4 activity, by any suitable known methodology known in the art. For example, Chinese Hamster Ovary (CHO) cells transacted with human mGluR4 or HEK cells co-transfected with rat mGluR4 and the G-protein regulated Inwardly Rectifying Potassium channel (GIRK) were plated in clear bottom assay plates for assay in a Hamamatsu FDSS Fluorometric Plate Reader. The cells were loaded with either a Ca2+-sensitive fluorescent dye or the thallium responsive dye and the plates were washed and placed into a suitable kinetic plate reader. For human mGluR4 assays, a fluorescence baseline was established for 3-5 seconds, the disclosed compounds were then added to the cells, and the response in cells was measured. Approximately two and a half minutes later, a concentration of mGluR4 orthosteric agonist (e.g. glutamate or L-AP4) eliciting approximately 20% (EC20) of the maximal agonist response was added to the cells, and the response was measured. Two minutes later, a concentration of mGluR4 agonist (e.g. glutamate or L-AP4) eliciting 80% (EC80) of the maximal agonist response was added to the cells, and the response was measured. For rat mGluR4/GIRK experiments, a baseline was established for approximately five seconds, disclosed compounds were added, and either an EC20 or EC80 concentration of agonist was added approximately two and one half minutes later. Potentiation of the agonist response of mGluR4 by the disclosed compounds was observed as an increase in response to the EC20 concentration of agonist in the presence of compound compared to the response to agonist in the absence of compound. Similarly, antagonism of the agonist response of mGluR4 by the disclosed compounds was observed as a decrease in response to the EC80 concentration of agonist in the presence of compound compared to the response to agonist in the absence of compound.
# The above described assay operated in two modes. In the first mode, a range of concentrations of the disclosed compounds are added to cells, followed by a single fixed concentration of agonist. If the compound acts as a potentiator, an EC50 so value for potentiation and a maximum extent of potentiation by the compound at this concentration of agonist is determined by non-linear curve fitting. If the compound acts as a noncompetitive antagonist, an IC50 value is determined by non-linear curve fitting. In the second mode, several fixed concentrations of the disclosed compounds are added to various wells on a plate, followed by a range in concentrations of agonist for each concentration of disclosed compound. The EC50 values for the agonist at each concentration of compound are determined by non-linear curve fitting. A decrease in the EC50 value of the agonist with increasing concentrations of the sample compound (a leftward shift of the agonist concentration-response curve) is an indication of the degree of mGluR4 potentiation at a given concentration of the sample compound. A decrease in the maximal response of the agonist with increasing concentrations of the sample compounds, with or without a rightward shift in agonist potency, is an indication of the degree of noncompetitive antagonism at mGluR4. The second mode also indicates whether the sample compounds also affect the maximum response to mGluR4 to agonists.
row,SMILES,pEC50
1,"CC(NCC(C)(C)C)c1noc2cc(Nc3n[nH]c4cccnc34)ccc12 (stereo not shown) [Example 137, 3-[1-(2,2-dimethylpropylamino)ethyl]-N-(1H-pyrazolo[4,3-b]pyridin-3-yl)-1,2-benzoxazol-6-amine]",6.09
2,"CC(c1ccc(=O)[nH]c1)c1noc2cc(Nc3n[nH]c4cccnc34)ccc12 (stereo not shown) [Example 139, 5-[1-[6-(1H-pyrazolo[4,3-b]pyridin-3-ylamino)-1,2-benzoxazol-3-yl]ethyl]-1H-pyridin-2-one]",< 5.00
3,"O=C(Cc1noc2cc(Nc3n[nH]c4nccnc34)ccc12)NC1CC(F)(F)C1 [Example 141, N-(3,3-difluorocyclobutyl)-2-[6-(1H-pyrazolo[3,4-b]pyrazin-3-ylamino)-1,2-benzoxazol-3-yl]acetamide]",6.56
4,"O=C(Cc1noc2cc(Nc3n[nH]c4cccnc34)ccc12)N1CC(F)(F)C1 [Example 144, 1-(3,3-difluoroazetidin-1-yl)-2-[6-(1H-pyrazolo[4,3-b]pyridin-3-ylamino)-1,2-benzoxazol-3-yl]ethanone]",5.59
5,"CC(C)(C)Cc1noc2cc(Nc3n[nH]c4cccnc34)cc(F)c12 [Example 145, 3-(2,2-dimethylpropyl)-4-fluoro-N-(1H-pyrazolo[4,3-b]pyridin-3-yl)-1,2-benzoxazol-6-amine; 2,2,2-trifluoroacetate acid]",5.84
6,"CCCCC(F)c1noc2cc(Nc3n[nH]c4cccnc34)ccc12 (stereo not shown) [Example 147, 3-(1-fluoropentyl)-N-(1H-pyrazolo[4,3-b]pyridin-3-yl)-1H-benzoxazol-6-amine]",5.83
7,"CC(C)(C)Cc1noc2cc(Nc3n[nH]c4ncccc34)cc(F)c12 [Example 148, 3-(2,2-dimethylpropyl)-4-fluoro-N-(1H-pyrazolo[3,4-b]pyridin-3-yl)-1,2-benzoxazol-6-amine]",< 4.52
8,"CC(C)(C)Cc1noc2cc(Nc3n[nH]c4nccnc34)cc(F)c12 [Example 149, 3-(2,2-dimethylpropyl)-4-fluoro-N-(1H-pyrazolo[3,4-b]pyrazin-3-yl)-1,2-benzoxazol-6-amine]",< 5.00

# Other lines, results leading:
row,pEC50,SMILES
1,5.58,"CCCCC(C)(F)c1noc2cc(Nc3n[nH]c4cccnc34)ccc12 (stereo not shown) [Example 134, 3-(1-fluoro-1-methyl-pentyl)-N-(1H-pyrazolo[4,3-b]pyridin-3-yl)-1,2-benzoxazol-6-amine]"
2,< 5.00,"CCCCC(F)(F)c1noc2cc(Nc3n[nH]c4cccnc34)ccc12 [Example 136, 3-(1,1-difluoropentyl)-N-(1H-pyrazolo[4,3-b]pyridin-3-yl)-1,2-benzoxazol-6-amine]"
3,< 5.00,"CCCCC(F)(F)c1noc2cc(Nc3n[nH]c4ncccc34)ccc12 [Example 138, 3-(1,1-difluoropentyl)-N-(1H-pyrazolo[3,4-b]pyridin-3-yl)-1,2-benzoxazol-6-amine]"
4,< 5.00,"O=C(Cc1noc2cc(Nc3n[nH]c4cccnc34)ccc12)NC1CC(F)(F)C1 [Example 140, N-(3,3-difluorocyclobutyl)-2-[6-(1H-pyrazolo[4,3-b]pyridin-3-ylamino)-1,2-benzoxazol-3-yl]acetamide]"
5,< 5.00,"O=C(Cc1noc2cc(Nc3n[nH]c4ncccc34)ccc12)NC1CC(F)(F)C1 [Example 142, N-(33-difluorocyclobutyl)-2-[6-(1H pyrazolo[3,4-b]pyridin-3-ylamino)-1,2-benzoxazol-3-yl]acetamide]"
6,5.87,"O=C(Cc1noc2cc(Nc3n[nH]c4cccnc34)ccc12)N1CCOCC1 [Example 143, 1-morpholino-2-[6-(1H-pyrazolo[4,3-b]pyridin-3-ylamino)-1,2-benzoxazol-3-yl]ethanone]"
7,5.67,"CC(C)(C)C(F)c1noc2cc(Nc3n[nH]c4cccnc34)ccc12 (stereo not shown) [Example 146, 3-(1-fluoro-2,2-dimethyl-propyl)-N-(1H-pyrazolo[4,3-b]pyridin-3-yl)-1,2-benzoxazol-6-amine]"
8,< 5.00,"CC(C)(C)Cc1noc2cc(Nc3n[nH]c4ncc(F)cc34)cc(F)c12 [Example 150, 3-(2,2-dimethylpropyl)-4-fluoro-N-(5-fluoro-1H-pyrazolo[3,4-b]pyridin-3-yl)-1,2-benzoxazol-6-amine]"
